Laboratory results from patent publication US20230174584A1, “Antibiotic Compounds” (priority 2019, published 2023).
≈ marks a conversion by molar mass, not a printed value.

Tests used:
E. faecalis E1246 = assay: MIC assay; type: cell-based, Enterococcus faecalis
Description: (§1) The antibacterial activity of the compounds was tested against a panel of bacteria, including Gram-positive bacteria (S. aureus ATCC29213, S. aureus USA300, S. aureus LIM-2, NR-45881, S. aureus HIP13419, NR-46413, E. faecium E155, E. faecium E7314, E. faecium E980, E. faecalis E1246, E. faecalis E7406 and S. pneumonia 153). The antibacterial activity of the compounds was further tested against S. aureus NY-155, NR-46236, S. aureus HIP12864, NR-46074, S. aureus 880 (BR-VRSA), NR-49120, E. faecalis E1246, E. faecalis E7604, as well as some Gram-negative bacteria (Escherichia coli and Klebsiella pneumoniae). Minimum inhibitory concentrations (MICs) in μg/mL were performed according to the CLSI guidelines. From glycerol stocks, bacterial strains were cultured on blood agar plates and incubated at 37° C. for 18 h. A single colony was transferred to tryptic soy broth (TSB) with 0.002% polysorbate 80 (p80). For the Enterococcus, VISA and VRSA strains, the cultures were grown at 37° C. until the optical density of the suspension reached a level equivalent to the 0.5 McFarland standard. The bacterial suspensions were diluted in TSB with 0.002% p80 to reach a bacterial cell density of 10^6 CFU/mL. In case of the other (vancomycin-sensitive) S. aureus strains, the direct colony suspension method was used. For these strains, after transfer of the colonies to TSB with 0.002% p80, they were immediately diluted to 10^6 CFU/mL, instead of incubated prior to this dilution. In the case of S. pneumonia, direct colony suspension was used by immediately suspending multiple colonies from fresh blood agar plates in TSB+0.002% p80 to an OD600 of 0.5 and subsequent dilution to 10^6 CFU mL^−1 in TSB+0.002% p80+5% lysed horse blood. Antibiotic dilutions for this strains were also made in TSB+0.002% p80+5% lysed horse blood. Both agar and microplates containing S. pneumonia were incubated at 37° C. with 5% CO2 for 24 h with constant shaking (600 rpm). […] The cultures were grown to exponential phase (OD600=0.5) at 37° C. […] In polypropylene 96-well microtiter plates, test compounds were added in biological triplicates and serial diluted 2-fold by transfer and mixing from one well to the next to achieve a final volume of 50 μL per well. An equal volume of bacterial suspension (10^6 CFU mL^−1) was added to the wells. The plates were sealed with breathable membranes and incubated at 37° C. for 24 h with constant shaking (600 rpm). In polypropylene microtiter plates, 100 μL of the test compounds was added to the first row in biological triplicates, and 50 μL of media was added to the other wells. The compounds were subjected to serial dilution by transfer and mixing of 50 μL from one well to the next. Subsequently, 50 μL of bacterial suspension (10^6 CFU/mL) was added to the wells. The plates were sealed with breathable membranes and incubated at 37° C. for 24 h with constant shaking (600 rpm). Positive growth control consisted of wells with bacterial suspension and without antibiotic. Negative growth control consisted of solely media without bacterial suspension or antibiotic. The MICs were determined from the median of a minimum of triplicates.

S. pneumoniae 153 = assay: MIC assay; type: cell-based; details: S. pneumoniae 153; TSB+0.002% p80+5% lysed horse blood
Description: as §1

E. faecalis E7604 = assay: microbe, parasite or virus in culture; type: cell-based, Enterococcus faecalis; details: E. faecalis E7604 VRE (vanB)
Description: as §1

E. faecalis E7406 = assay: microbe, parasite or virus in culture; type: cell-based, Enterococcus faecalis; details: E. faecalis E7406 VRE (VanB)
Description: as §1

E. faecium E980 = assay: MIC assay; type: cell-based, Enterococcus faecium; details: E. faecium E980 VSE
Description: as §1

MRSA USA300 = assay: MIC assay in the presence of sheep serum; type: cell-based, Staphylococcus aureus; details: MRSA USA300, TSB + 0.002% p80 + 50% sheep serum
Description: as §1
The activity of the compounds was further assessed against MRSA USA300 strain in the presence of sheep) serum in another MIC assay. The cultures that grew in the presence of serum used TSB+0.002% P80+50% sheep serum as growth media, as opposed to normal MICs done in only TSB+0.002% P80.

[1] = tested on: S. aureus HIP13419, NR-46413; assay: microbe, parasite or virus in culture; type: cell-based, Staphylococcus aureus; details: S. aureus HIP13419, NR-46413 VRSA
Description: as §1

S. aureus USA300 = assay: microbe, parasite or virus in culture; type: cell-based, Staphylococcus aureus
Description: as §1

E. faecium E7314 = assay: microbe, parasite or virus in culture; type: cell-based, Enterococcus faecium; details: E. faecium E7314 VRE (VanB)
Description: as §1

E. faecium E155 = assay: microbe, parasite or virus in culture; type: cell-based, Enterococcus faecium; details: E. faecium E155 VRE (VanA)
Description: as §1

[2] = tested on: S. aureus HIP12864, NR-46074; assay: MIC assay; type: cell-based, Staphylococcus aureus; details: S. aureus HIP12864, NR-46074 VISA
Description: as §1

[3] = tested on: S. aureus LIM-2, NR-25881; assay: MIC assay; type: cell-based, Staphylococcus aureus; details: S. aureus LIM-2, NR-25881 VISA
Description: as §1

[4] = tested on: S. aureus 880 (BR-VRSA), NR-49120; assay: MIC assay; type: cell-based, Staphylococcus aureus; details: S. aureus 880, NR-49120 VRSA
Description: as §1

S. aureus ATCC29213 = assay: MIC assay; type: cell-based, Staphylococcus aureus; details: S. aureus ATCC29213 MSSA
Description: as §1

[5] = tested on: S. aureus NY-155, NR-46236; assay: MIC assay; type: cell-based, Staphylococcus aureus; details: S. aureus NY-155, NR-46236 MRSA
Description: as §1

[6] = E. faecalis E1246 VRE (VanA), Table 7
[7] = E. faecalis E1246 VRE (vanA), Table 9

Compound | MIC (E. faecalis E1246; [6]) [mg/L] | MIC (E. faecalis E1246; [7]) [mg/L] | MIC (S. pneumoniae 153) [mg/L] | MIC (E. faecalis E7604) [mg/L] | MIC (E. faecalis E7406) [mg/L] | MIC (E. faecium E980) [mg/L] | MIC (MRSA USA300) [mg/L] | MIC [1] [mg/L] | MIC (S. aureus USA300; MRSA USA300, TSB + 0.002% p80) [mg/L] | MIC (S. aureus USA300; S. aureus USA300 MRSA) [mg/L] | MIC (E. faecium E7314) [mg/L] | MIC (E. faecium E155) [mg/L] | MIC [2] [mg/L] | MIC [3] [mg/L] | MIC [4] [mg/L] | MIC (S. aureus ATCC29213) [mg/L] | MIC [5] [mg/L]
CCCCCCNC(N)=Nc1ccc(CNC2(C)CC(OC3C(Oc4c5cc6cc4Oc4ccc(cc4Cl)C(O)C4NC(=O)C(NC(=O)C6NC(=O)C(CC(N)=O)NC(=O)C(NC(=O)C(CC(C)C)NC)C(O)c6ccc(c(Cl)c6)O5)c5ccc(O)c(c5)-c5c(O)cc(O)cc5C(C(=O)O)NC4=O)OC(CO)C(O)C3O)OC(C)C2O)cc1 (stereo not drawn) [Compound 4] | 32 (≈ 19 µM) | 32 (≈ 19 µM) | 0.016 (≈ 0.00952 µM) | 0.25 (≈ 0.149 µM) | 0.25 (≈ 0.149 µM) | 0.03125 (≈ 0.0186 µM) | 0.063 | 4 (≈ 2.38 µM) | 0.063 | 0.0625 (≈ 0.0372 µM) | 0.03125 (≈ 0.0186 µM) | 8 (≈ 4.76 µM) | 0.5 (≈ 0.298 µM) | 0.25 (≈ 0.149 µM) | 16 (≈ 9.52 µM) | 0.0625 (≈ 0.0372 µM) | 0.063 (≈ 0.0375 µM)
CCCCCCCCCCNC(N)=Nc1ccc(CN[C@@]2(C)C[C@H](O[C@H]3[C@H](Oc4c5cc6cc4Oc4ccc(cc4Cl)[C@@H](O)[C@@H](NC(=O)[C@@H](CC(C)C)NC)C(=O)N[C@@H](CC(N)=O)C(=O)N[C@H]6C(=O)N[C@H]4C(=O)N[C@H](C(=O)N[C@H](C(=O)O)c6cc(O)cc(O)c6-c6cc4ccc6O)[C@H](O)c4ccc(c(Cl)c4)O5)O[C@H](CO)[C@@H](O)[C@@H]3O)O[C@@H](C)[C@H]2O)cc1 [Compound 8] | 1 (≈ 0.576 µM) | 1 (≈ 0.576 µM) | ≤0.008 | ≤0.008 | ≤0.007812 | 0.01562 (≈ 0.00899 µM) | 0.125 | 0.063 (≈ 0.0363 µM) | 0.063 | 0.0625 (≈ 0.036 µM) | ≤0.007812 | 0.25 (≈ 0.144 µM) | 0.062 (≈ 0.0357 µM) | 0.016 (≈ 0.00921 µM) | 0.25 (≈ 0.144 µM) | 0.01562 (≈ 0.00899 µM) | ≤0.008
CCCCCCCCCCCCNC(N)=Nc1ccc(CN[C@@]2(C)C[C@H](O[C@H]3[C@H](Oc4c5cc6cc4Oc4ccc(cc4Cl)[C@@H](O)[C@@H](NC(=O)[C@@H](CC(C)C)NC)C(=O)N[C@@H](CC(N)=O)C(=O)N[C@H]6C(=O)N[C@H]4C(=O)N[C@H](C(=O)N[C@H](C(=O)O)c6cc(O)cc(O)c6-c6cc4ccc6O)[C@H](O)c4ccc(c(Cl)c4)O5)O[C@H](CO)[C@@H](O)[C@@H]3O)O[C@@H](C)[C@H]2O)cc1 [Compound 9] | 1 (≈ 0.567 µM) | 1 (≈ 0.567 µM) | ≤0.008 | 0.063 (≈ 0.0357 µM) | 0.0625 (≈ 0.0354 µM) | 0.125 (≈ 0.0708 µM) | 1 | 0.125 (≈ 0.0708 µM) | 0.5 | 0.5 (≈ 0.283 µM) | 0.03125 (≈ 0.0177 µM) | 0.125 (≈ 0.0708 µM) | 0.25 (≈ 0.142 µM) | 0.5 (≈ 0.283 µM) | 0.25 (≈ 0.142 µM) | 0.125 (≈ 0.0708 µM) | 0.5 (≈ 0.283 µM)
CCCCCCCCCCCCCCNC(N)=Nc1ccc(CN[C@@]2(C)C[C@H](O[C@H]3[C@H](Oc4c5cc6cc4Oc4ccc(cc4Cl)[C@@H](O)[C@@H](NC(=O)[C@@H](CC(C)C)NC)C(=O)N[C@@H](CC(N)=O)C(=O)N[C@H]6C(=O)N[C@H]4C(=O)N[C@H](C(=O)N[C@H](C(=O)O)c6cc(O)cc(O)c6-c6cc4ccc6O)[C@H](O)c4ccc(c(Cl)c4)O5)O[C@H](CO)[C@@H](O)[C@@H]3O)O[C@@H](C)[C@H]2O)cc1 [Compound 10] | 2 (≈ 1.12 µM) | 2 (≈ 1.12 µM) | 0.031 (≈ 0.0173 µM) | 1 (≈ 0.558 µM) | 1 (≈ 0.558 µM) | 0.5 (≈ 0.279 µM) | 16 | 0.5 (≈ 0.279 µM) | 4 | 4 (≈ 2.23 µM) | 0.5 (≈ 0.279 µM) | 0.5 (≈ 0.279 µM) | 2 (≈ 1.12 µM) | 4 (≈ 2.23 µM) | 1 (≈ 0.558 µM) | 2 (≈ 1.12 µM) | 8 (≈ 4.46 µM)
Teicoplanin [reference compound] | >128 | >128 | 0.031 | 0.125 | 0.125 | 0.5 | 2 | 32 | 0.5 | 0.5 | 0.25 |  | 4 | 16 | 16 | 0.5 | 0.5
